This is an account of results in patent publication US6946462B2, “N-monoacylated derivatives of o-phenylenediamines, their analogs and their use as pharmaceutical agents” (Hoffmann-La Roche Inc., priority 2001, dated 2005).

For test [1], the target named is T1, rec. HDAC-1 purified from HEK 293 cells (Homo sapiens, UniProt Q13547).
T1 construct: made in house; host or cells: HEK 293 cells
As to the kind of experiment: Assay for inhibition of histone deacetylase (HDAC), quenched peptide / Lys C fluorescence. The class given is biochemical. As to conditions: 10 concentrations starting at 30 uM, 90 min incubation. An excerpt: A) Assay for Inhibition of Histone Deacetylase (HDAC)
HDAC deacetylates lysines in histone H4. A 17 aa peptide with TAMRA at the C-terminus and QSY7 at the N-terminus was used as a substrate. Following deacetylation by HDAC the enzyme Lys C is able to cleave the peptide resulting in disappearence of the quench effect and a high signal. Inhibition of HDAC by compounds results in low signals because Lys C has no substrate for cleaving and the quench effect persists.
For dose response curves 10 concentrations were diluted starting at 30 uM. 10 ul compound dilution were put into each well of a 384 well plate. 10 ul HDAC (rec. HDAC-1 purified from HEK 293 cells; activity was assessed for each preparation) were added. 10 ul peptide was added (1 uM final concentration). After 90 min incubation at room temperature the reaction was stopped by addition of 20 ul test buffer including 3 ug/ml Lys C and 0.075% SDS. After overnight incubation the fluorescent signal of TAMRA was measured at absorption 544 nm, emission 590 nm by Victor 2.

The subject of test [2] is E-cadherin expression in A549. Kind of test: E-cadherin upregulation assay (ELISA, with WST-1 proliferation in the same well). The format is cell-based. The conditions noted are these: A549 human lung carcinoma cells; % proliferation subtracted from % E-cadherin expression; 10 concentrations starting at 40 uM; read-out: E-cadherin upregulation EC50 [μM] (Assay B). The source says:
B) E-cadherin Upregulation Assay
E-cadherin as an adhesion molecule is important for connection of the cells and integrity of tissues. […] Upregulation of the protein in cells where there is insufficient E-cadherin is regarded as a marker for the differentiation of the tumor cell. This corresponds to leaving the undifferentiated tumor cell status.
The compounds described are able to upregulate expression of E-cadherin in A549. In parallel, the proliferation of the cells is examined. The activity of an E-cadherin upregulator is defined as an increase in E-cadherin expression determined by an ELISA. Cell proliferation is also determined by WST-1 in the same well.
The assay was performed in 384-well format. […] 5000 cells per well were seeded in culture medium with 10% FCS at day 1. At day 2 compounds in different concentrations starting at 40 uM were added at a final concentration of DMSO of 0.5%. At day 4, WST-1 reagent was added and absorption was measured after 45 min (450 nm/690 nm).
The medium was aspirated, 100 ul fixation solution was added per well and discarded after 30 min, followed by addition of 100 ul blocking solution. […] Absorption was measured at 405 nm.
% proliferation of cells is substracted from % E-cadherin expression resulting in Delta. The dose response curve resulting from 10 concentrations was calculated using XLfit. […]
In general terms: In an ELISA, binding on a coated surface is turned into a signal by an enzyme label.

In test [3] the test system is SW620 colon carcinoma cells. As to the kind of experiment: SW620 colon carcinoma xenograft in nude mice, tumor volume. The format is in vivo, Balb/C nu/nu-mice. As to conditions: oral, once daily, day 8 to day 27. The procedure: Female Balb/C nu/nu-mice(n=12 per group), aged 8-10 weeks, were subcutaneously injected with […] SW620 colon carcinoma cells. On day 6, animals with tumor volumes of about 200 mm^3 were randomly assigned to treatment groups. The test compound was administered as a fine suspension in 0.5% methylcellulose with an application volume of 10 ml/kg based on actual body weights. Oral treatment started on day 8 and continued through to day 27 on a once daily, 7 times per week treatment schedule.
The volume of the tumor was determined from the following equation:
Volume of a tumor=½×(major axis)×(minor axis)2

T1 sequence (Q13547 whole entry): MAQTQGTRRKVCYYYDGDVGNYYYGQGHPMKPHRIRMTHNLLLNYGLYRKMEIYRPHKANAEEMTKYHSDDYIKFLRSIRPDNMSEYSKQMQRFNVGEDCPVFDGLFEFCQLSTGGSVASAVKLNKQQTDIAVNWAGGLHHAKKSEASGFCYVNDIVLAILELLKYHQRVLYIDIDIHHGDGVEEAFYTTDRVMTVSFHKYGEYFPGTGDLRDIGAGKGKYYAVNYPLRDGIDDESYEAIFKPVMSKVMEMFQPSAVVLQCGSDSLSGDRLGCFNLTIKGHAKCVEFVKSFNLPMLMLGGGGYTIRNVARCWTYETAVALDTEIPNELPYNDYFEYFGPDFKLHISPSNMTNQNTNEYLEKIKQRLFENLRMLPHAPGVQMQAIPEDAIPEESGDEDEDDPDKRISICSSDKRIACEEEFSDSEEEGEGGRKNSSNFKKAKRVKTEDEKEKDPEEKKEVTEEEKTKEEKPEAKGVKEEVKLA

Usually IC50 stands for the concentration needed to halve the response being measured. What is called EC50 is the concentration needed to bring the measured effect to its halfway point. In test [1], `Nc1ccccc1NC(=O)c1cscn1` [Compound 38, Thiazole-4-carboxylic acid (2-amino-phenyl)-amide] showed an IC50 of 11.1 µM. Further, the EC50 in test [2] was determined as 5.9 µM. Moreover, the “Tumor volume (mm^3)” value in test [3] (end of the study, female Balb/C nu/nu mice with s.c. SW620 tumors) is reported as 1029.0 mm^3. Besides, the “% inhibition vs. control” value in test [3] (tumor volume at the end of the study, SW620 xenograft) came to 53%.
